This is an account of results in patent US20180369244A1, “BTK Inhibitors to Treat Solid Tumors Through Modulation of the Tumor Microenvironment” (Acerta Pharma B.V., priority 2014, published 2018).

Data set [1] is described as follows: In vitro metabolism in hepatocytes with 14C-labeled Formula (II). The data set is classed as in vitro ADME, mouse, rat, dog, rabbit, monkey, and human. An excerpt:
No unique human metabolite was identified. Preliminary evaluations of metabolism in the plasma, bile, and urine of rats, dogs, and monkeys indicated metabolic processes of oxidation, glutathione binding, and hydrolysis.

A short description of data set [2]: GLP safety pharmacology in rats (functional observation battery, respiratory function). It counts as in vivo. Conditions: doses through 300 mg/kg. An excerpt:
Formula (II) was well tolerated in standard in vivo Good Laboratory Practices (GLP) studies of pharmacologic safety.

For another data set, the system named is NSCLC (KrasLA2). In words: KrasLA2 genetic NSCLC model. It counts as in vivo, mice. An excerpt: The model is designed to have sporadic expression in single cells of G12D mutant Kras off its own promoter triggered by spontaneous intrachromosomal recombination. Johnson, et al. Nature 2001, 410, 1111-16. While the mutant Kras protein is expressed in a few cells in all tissues, tumor development is seen only in the lung at high penetrance.

In another data set the test system is CD4+ T cells. Put plainly: Th17 and Treg development from CD4+ T cells. The data set is classed as cell-based. The protocol:
Enriched CD4^+ T cells are plated on 24-well culture dishes that have been precoated 2 hr with 250 μL anti-TCRβ (0.5 μg/mL) plus anti-CD28 (5 μg/mL) at 37° C. in PBS. The cells are then supplemented with media containing BTK inhibitors along with the skewing cytokines as indicated in the following. The Th17 and Treg cultures are grown for 4 days before analysis. The cells are maintained for an additional 3 days with skewing cytokines (Th17; 20 ng/mL IL-6, 0.5 ng/mL TGF-β, 5 μg/mL IL-4, 5 μg/mL IFN-γ and Treg; 0.5 ng/mL TGF-β, 5 μg/mL IL-4, 5 μg/mL IFN-γ) and are supplemented with IL2 as a growth factor.

Turning to `CC#CC(=O)N1CCC[C@H]1c1nc(-c2ccc(C(=O)Nc3ccccn3)cc2)c2c(N)nccn12` [Formula (II), (S)-4-(8-amino-3-(1-(but-2-ynoyl)pyrrolidin-2-yl)imidazo[1,5-a]pyrazin-1-yl)-N-(pyridin-2-yl)benzamide], the metabolites in hepatocytes entry in data set [1] is “two mono-oxidized metabolites and a glutathione conjugate”. Moreover, in data set [2], the “functional observation battery: neurobehavioral effects, body temperature” value is “no adverse effects” and the respiratory function entry was “no treatment-related adverse effects”. For the same compound, in the data set with NSCLC (KrasLA2) (15 mg/kg), the number of tumors result is listed as “fewer overall tumors” and the “tumor volumes versus vehicle” value is on record as “significant decrease in tumor volumes”. The “immunosuppressive tumor associated TAMs” value with NSCLC (KrasLA2) (FIG. 62) is “significant reduction”. Further, in the data set with NSCLC (KrasLA2) (FIG. 63), the “immunosuppressive tumor associated MDSCs” value is on record as “significant reduction”. Also, in the data set with NSCLC (KrasLA2) (FIG. 64), the “immunosuppressive tumor associated Tregs” value is given as “significant reduction”. The “Th17 and Treg development” value in the data set on CD4+ T cells was “no adverse effects on Th17 and Treg development”.
